Reference: ChEMBL document CHEMBL1156494, “Stelliferin riboside, a triterpene monosaccharide isolated from the Fijian sponge Geodia globostellifera” (J Nat Prod, 2001)
In brackets after ≈: the same amount, converted by molar mass.

Key:
[1] = system: K562; assay: Cytotoxicity against human K562 cells; type: functional, cell-based
[2] = system: A2780; assay: Cytotoxicity against human A2780 cells; type: functional, cell-based

SMILES: C\C(=C/C=C/C(C)=C1/C(=O)C[C@H]2[C@@]3(C)CCC(=O)C(C)(C)[C@@H]3CC[C@]12C)c1ccc(C)c(=O)o1 [STELLETIN A]
- IC50 [1]: 3.82 µg/mL (≈ 8.26 µM)
- IC50 [2]: 1.52 µg/mL (≈ 3.29 µM)

SMILES: CC(/C=C/C=C(\C)c1ccc(C)c(=O)o1)=C1/C(=O)C[C@H]2[C@@]3(C)CCC(=O)C(C)(C)[C@@H]3CC[C@]12C [STELLETTIN B]
- IC50 [1]: 0.93 µg/mL (≈ 2.01 µM)
- IC50 [2]: 0.0051 µg/mL (≈ 0.011 µM)

SMILES: CC(=O)O[C@@H]1CC[C@@]2(C)[C@@H](CC[C@]3(C)/C(=C(C)/C=C/C=C(\C)C(CC=C(C)C)O[C@@H]4OC[C@@H](O)[C@@H](O)[C@H]4O)C(=O)C[C@@H]23)C1(C)C (stereo partly specified) [STELLIFERIN RIBOSIDE]
- IC50 [1]: > 50 µg/mL
- IC50 [2]: 38.1 µg/mL (≈ 60.6 µM)
